Measurements reported in patent US20240190890A1, “MK2 INHIBITORS AND USES THEREOF” (Bristol-Myers Squibb Company, priority 2022, published 2024).
pIC50: −log10 of the molar value.

What follows are molecules tested against p38a activated, mitogen-activated protein kinase-activated protein kinase 2 (MAPKAP-K2 or MK2) enzyme (Homo sapiens (Human), UniProt P49137) (assay: MK2 Omnia continuous-read kinase assay for compound potency). Details: [MK-2]=0.4 nM, [ATP]=10 μM, [ST3-Sox]=10 μM; room temperature.
Type: biochemical
Description: Mitogen-Activated Protein Kinase-Activated Protein Kinase 2 Omnia® Assay for Compound Potency Assessment:
The protocol below describes a continuous-read kinase assay optimized to measure potency of compounds against p38a activated, mitogen-activated protein kinase-activated protein kinase 2 (MAPKAP-K2 or MK2) enzyme. Further details of this assay are described by Life Technologies, Carlsbad, CA on their website at the following URL: http://tools.lifetechnologies.com/content/sfs/manuals/omnia_kinase_assay_man.pdf. • [Reagent] used: • [MK-2]=0.4 nM, • [ATP]=10 μM and • [ST3-Sox]=10 μM (ATP^appKM=10 μM)
Briefly, 10× stock solutions of MK2 (PV3317, from Life Technologies), 1.13X ATP (AS001A), and Sox conjugated peptide substrate, S/T3-Sox, (KZN1031) were prepared in 1× kinase reaction buffer consisting of 20 mM Tris, pH 7.5, 5 mM MgCl2, 1 mM EGTA, 5 mM β-glycerophosphate, 5% glycerol (10× stock, KB001A) and 0.2 mM DTT (DS001A). Enzyme solution (5 μL) was added to each of DMSO ([…]) or serially diluted test compounds prepared in DMSO in a Corning (#3574) 384-well, white, non-binding surface microtiter plate (Corning, NY). Kinase reactions were started with the addition of 45 μL of the ATP-peptide substrate S/T3-Sox mix and monitored every 71 seconds for 120 minutes at λex360/λem485 in a Synergy H4 plate reader from BioTek (Winooski, VT) at room temperature.
Background signals from the no enzyme control wells were subtracted from all progress curves. The initial linear portions of the net progress curves were fit according to a linear equation to yield the slope and percentage of inhibition (% inhibition) at each compound concentration. The net progress curves obtained during the first two hours of reactions were also fit according to an ascending single-exponential equation (Eq. 1) to yield kobs values at each compound concentration. Plots of % Inhibition versus inhibitor concentrations were fit according to a dose-response equation (Eq. 2) to generate IC50 and Hill slope values while plots of kobs versus inhibitor concentration were fit according to Equation 3 (Eq. 3) to generate apparent kinact/K1 values using the GraphPad PRISM software (Version 6.00; GraphPad San Diego, CA).
where F is the fluorescence intensity from the plate reader, V0 is a constant reflecting the relationship between the instrument readout and product concentration, t is time, e is Euler's number, and kobs is the observed inactivation rate constant.
where % Inhibition is percentage of inhibition, IC50 is half maximal inhibitory concentration, [I] is the inhibitor concentration, and n is the Hill slope.
where kobs is the observed inactivation rate constant, kinact is the apparent inactivation rate constant, K1 is the apparent inhibition constant, and [I] is the inhibitor concentration. […] Potency results for the compounds tested are shown in Table 4 in the column entitled “MK2 IC50.”

Sequence of p38a activated, mitogen-activated protein kinase-activated protein kinase 2 (MAPKAP-K2 or MK2) enzyme (P49137 whole entry): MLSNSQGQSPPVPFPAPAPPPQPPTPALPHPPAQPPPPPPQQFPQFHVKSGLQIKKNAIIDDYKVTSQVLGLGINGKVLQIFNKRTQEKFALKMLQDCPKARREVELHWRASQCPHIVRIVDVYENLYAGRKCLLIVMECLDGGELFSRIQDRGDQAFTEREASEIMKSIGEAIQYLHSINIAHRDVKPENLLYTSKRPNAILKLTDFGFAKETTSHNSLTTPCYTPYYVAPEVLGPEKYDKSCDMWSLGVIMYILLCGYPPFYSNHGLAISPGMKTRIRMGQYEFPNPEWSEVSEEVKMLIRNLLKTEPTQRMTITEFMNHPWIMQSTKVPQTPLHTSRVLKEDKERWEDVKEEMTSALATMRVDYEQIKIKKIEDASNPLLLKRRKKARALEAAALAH

| SMILES | pIC50 |
| --- | --- |
| C=Cc1cc(-c2ccc3c(ccc4sc5c(c43)NC[C@@H](C)NC5=O)n2)cc(CN2CCOCC2)n1 [Example I-140, (R)-10-methyl-3-(2-(morpholinomethyl)-6-vinylpyridin-4-yl)-9,10,11,12-tetrahydro-8H-[1,4]diazepino[5′,6′:4,5]thieno[3,2-f]quinolin-8-one] | 7.85 |
| C#Cc1cc(-c2ccc3c(ccc4sc5c(c43)NC[C@@H](C)NC5=O)n2)cc(N2CCC(OC)CC2)n1 [Example I-159, (R)-3-(2-ethynyl-6-(4-methoxypiperidin-1-yl)pyridin-4-yl)-10-methyl-9,10,11,12-tetrahydro-8H-[1,4]diazepino[5′,6′:4,5]thieno[3,2-f]quinolin-8-one] | 6.72 |
| [2H]C([2H])([2H])C(O)c1cnc(C=C)cc1-c1ccc2c(ccc3sc4c(c32)NC[C@@H](C)NC4=O)n1 (stereo partly drawn) [Example I-259, (10R)-3-(5-(1-hydroxyethyl-2,2,2-d3)-2-vinylpyridin-4-yl)-10-methyl-9,10,11,12-tetrahydro-8H-[1,4]diazepino[5′,6′:4,5]thieno[3,2-f]quinolin-8-one] | 7.82 |
| C=Cc1cc(-c2ccc3c(ccc4sc5c(c43)NC[C@@H](C)NC5=O)n2)nc(CO)n1 [Example I-76, (R)-3-(2-(hydroxymethyl)-6-vinylpyrimidin-4-yl)-10-methyl-9,10,11,12-tetrahydro-8H-[1,4]diazepino[5′,6′:4,5]thieno[3,2-f]quinolin-8-one] | 9.00 |
| [2H]C([2H])([2H])c1cnc(C=C)cc1-c1ccc2c(ccc3sc4c(c32)NC[C@@H](C)NC4=O)n1 [Example I-142, (R)-10-methyl-3-(5-(methyl-d3)-2-vinylpyridin-4-yl)-9,10,11,12-tetrahydro-8H-[1,4]diazepino[5′,6′:4,5]thieno[3,2-f]quinolin-8-one] | 8.05 |
| C=Cc1csc(-c2ccc3c(ccc4sc5c(c43)NC[C@@H](C)NC5=O)n2)n1 [Example I-149, (R)-10-methyl-3-(4-vinylthiazol-2-yl)-9,10,11,12-tetrahydro-8H-[1,4]diazepino[5′,6′:4,5]thieno[3,2-f]quinolin-8-one] | 7.02 |
| C=C(CN1CCCC1)c1cc(-c2ccc3c(ccc4sc5c(c43)NC[C@@H](C)NC5=O)n2)ccn1 [Example I-116, (R)-10-methyl-3-(2-(3-(pyrrolidin-1-yl)prop-1-en-2-yl)pyridin-4-yl)-9,10,11,12-tetrahydro-8H-[1,4]diazepino[5′,6′:4,5]thieno[3,2-f]quinolin-8-one] | 8.22 |
| C#Cc1cc(-c2ccc3c(ccc4sc5c(c43)NC[C@@H](C)NC5=O)n2)cc(C2=CCN(C)CC2)n1 [Example I-102, (R)-3-(6-ethynyl-1′-methyl-1′,2′,3′,6′-tetrahydro-[2,4′-bipyridin]-4-yl)-10-methyl-9,10,11,12-tetrahydro-8H-[1,4]diazepino[5′,6′:4,5]thieno[3,2-f]quinolin-8-one] | 8.10 |
| C[C@@H]1CNc2c(sc3ccc4nc(-c5cc(/C=C/CN(C)C)ncn5)ccc4c23)C(=O)N1 [Example I-115, (R,E)-3-(6-(3-(dimethylamino)prop-1-en-1-yl)pyrimidin-4-yl)-10-methyl-9,10,11,12-tetrahydro-8H-[1,4]diazepino[5′,6′:4,5]thieno[3,2-f]quinolin-8-one] | 7.43 |
| C=Cc1cc(-c2ccc3c(ccc4sc5c(c43)NC[C@@H](C)NC5=O)n2)cc(C)n1 [Example I-110, (R)-10-methyl-3-(2-methyl-6-vinylpyridin-4-yl)-9,10,11,12-tetrahydro-8H-[1,4]diazepino[5′,6′:4,5]thieno[3,2-f]quinolin-8-one] | 8.10 |
| C#Cc1nc(-c2ccc3c(ccc4sc5c(c43)NC[C@@H](C)NC5=O)n2)cc(N2CCN(C)CC2)n1 [Example I-60, (R)-3-(2-ethynyl-6-(4-methylpiperazin-1-yl)pyrimidin-4-yl)-10-methyl-9,10,11,12-tetrahydro-8H-[1,4]diazepino[5′,6′:4,5]thieno[3,2-f]quinolin-8-one] | 7.24 |
| C#Cc1nc(CN2CCN(C)CC2)cc(-c2ccc3c(ccc4sc5c(c43)NC[C@@H](C)NC5=O)n2)n1 [Example I-89, (R)-3-(2-ethynyl-6-((4-methylpiperazin-1-yl)methyl)pyrimidin-4-yl)-10-methyl-9,10,11,12-tetrahydro-8H-[1,4]diazepino[5′,6′:4,5]thieno[3,2-f]quinolin-8-one] | 7.59 |
| C=Cc1ncc(COC2(C)COC2)c(-c2ccc3c(ccc4sc5c(c43)NC[C@@H](C)NC5=O)n2)n1 [Example I-29, (R)-10-methyl-3-(5-(((3-methyloxetan-3-yl)oxy)methyl)-2-vinylpyrimidin-4-yl)-9,10,11,12-tetrahydro-8H-[1,4]diazepino[5′,6′:4,5]thieno[3,2-f]quinolin-8-one] | 7.70 |
| C[C@@H]1CNc2c(sc3ccc4nc(-c5cc(Cl)nnc5OCCN5CCCC5)ccc4c23)C(=O)N1 [Example I-119, (R)-3-(6-chloro-3-(2-(pyrrolidin-1-yl)ethoxy)pyridazin-4-yl)-10-methyl-9,10,11,12-tetrahydro-8H-[1,4]diazepino[5′,6′:4,5]thieno[3,2-f]quinolin-8-one] | 6.01 |
| C=Cc1cc(-c2ccc3c(ccc4sc5c(c43)NC[C@@H](C)NC5=O)n2)nc(COCC)n1 [Example I-22, (R)-3-(2-(ethoxymethyl)-6-vinylpyrimidin-4-yl)-10-methyl-9,10,11,12-tetrahydro-8H-[1,4]diazepino[5′,6′:4,5]thieno[3,2-f]quinolin-8-one] | 8.70 |
| C=Cc1cc(-c2ccc3c(ccc4sc5c(c43)NC[C@@H](C)NC5=O)n2)c(OC(F)F)cn1 [Example I-247, (R)-3-(5-(difluoromethoxy)-2-vinylpyridin-4-yl)-10-methyl-9,10,11,12-tetrahydro-8H-[1,4]diazepino[5′,6′:4,5]thieno[3,2-f]quinolin-8-one] | 6.44 |
| C=Cc1cc(-c2ccc3c(ccc4sc5c(c43)NC[C@@H](C)NC5=O)n2)nc(C#CC(C)(C)N)n1 [Example I-66, (R)-3-(2-(3-amino-3-methylbut-1-yn-1-yl)-6-vinylpyrimidin-4-yl)-10-methyl-9,10,11,12-tetrahydro-8H-[1,4]diazepino[5′,6′:4,5]thieno[3,2-f]quinolin-8-one] | 8.05 |
| C#Cc1cc(-c2ccc3c(ccc4sc5c(c43)NC[C@@H](C)NC5=O)n2)c(Cl)cn1 [Example I-144, (R)-3-(5-chloro-2-ethynylpyridin-4-yl)-10-methyl-9,10,11,12-tetrahydro-8H-[1,4]diazepino[5′,6′:4,5]thieno[3,2-f]quinolin-8-one] | 6.17 |
| C=Cc1nncn1-c1ccc2c(ccc3sc4c(c32)NC[C@@H](C)NC4=O)n1 [Example I-203, (R)-10-methyl-3-(3-vinyl-4H-1,2,4-triazol-4-yl)-9,10,11,12-tetrahydro-8H-[1,4]diazepino[5′,6′:4,5]thieno[3,2-f]quinolin-8-one] | 8.05 |
| C=Cc1cc(-c2ccc3c(ccc4sc5c(c43)NC[C@@H](C)NC5=O)n2)c(CN2CCC(OC)CC2)cn1 [Example I-155, (R)-3-(5-((4-methoxypiperidin-1-yl)methyl)-2-vinylpyridin-4-yl)-10-methyl-9,10,11,12-tetrahydro-8H-[1,4]diazepino[5′,6′:4,5]thieno[3,2-f]quinolin-8-one] | 7.02 |
| C[C@@H]1CNc2c(sc3ccc4nc(-c5cc(Cl)nc(CO)c5)ccc4c23)C(=O)N1 [Example I-97, (R)-3-(2-chloro-6-(hydroxymethyl)pyridin-4-yl)-10-methyl-9,10,11,12-tetrahydro-8H-[1,4]diazepino[5′,6′:4,5]thieno[3,2-f]quinolin-8-one] | 7.22 |
| COc1cnc(Cl)nc1-c1ccc2c(ccc3sc4c(c32)NC[C@@H](C)NC4=O)n1 [Example I-10, (R)-3-(2-chloro-5-methoxypyrimidin-4-yl)-10-methyl-9,10,11,12-tetrahydro-8H-[1,4]diazepino[5′,6′:4,5]thieno[3,2-f]quinolin-8-one] | 6.54 |
| C#Cc1nccc(-c2ccc3c(ccc4sc5c(c43)NC[C@@H](C)NC5=O)n2)c1F [Example I-218, (R)-3-(2-ethynyl-3-fluoropyridin-4-yl)-10-methyl-9,10,11,12-tetrahydro-8H-[1,4]diazepino[5′,6′:4,5]thieno[3,2-f]quinolin-8-one] | 7.10 |
